Measured values taken from ChEMBL document CHEMBL1132935, “Design and synthesis of aryloxyethyl thiocyanate derivatives as potent inhibitors of Trypanosoma cruzi proliferation” (J Med Chem, 2000).

Key:
[1] = system: Trypanosoma cruzi; test: 50% inhibitory concentration against the growth of Trypanosoma cruzi (Epimastigotes); format: functional, organism-based
[2] = system: Trypanosoma cruzi; test: 90% inhibitory concentration against the growth of Trypanosoma cruzi (Epimastigotes); format: functional
[3] = system: Trypanosoma cruzi; test: 50% inhibitory concentration against the growth of intracellular Trypanosoma cruzi; format: functional, organism-based

Compound | IC50 [1] | IC90 [2] | IC50 [3]
N#CSCCOc1cccc(Br)c1 | < 4 µM | 27 µM | 
c1ccc(Oc2ccc(SCCOC3CCCCO3)cc2)cc1 (stereo not drawn) | 291 µM |  | 
O=c1c2ccccc2oc2ccc(OCCOC3CCCCO3)cc12 (stereo not drawn) | > 60 µM |  | 
N#CSCCOc1ccc2oc3ccccc3c(=O)c2c1 | 54 µM |  | 
Cc1ccccc1Oc1ccc(OCCSC#N)cc1 | 2.7 µM | 3.5 µM | 41.7 µM
N#CSCCOc1ccc(Oc2ccccc2)cc1Br | 1.4 µM | 18 µM | 64.5 µM
c1ccc(Oc2ccc(COC3CCCCO3)cc2)cc1 (stereo not drawn) | 102 µM |  | 
CC(=O)N(CCOC1CCCCO1)c1ccc(Oc2ccccc2)cc1 (stereo not drawn) | 211 µM |  | 
N#CSCCOc1ccc(Oc2ccccc2)cc1 |  | 3.5 µM | 16 µM
CC(=O)N(CCO)c1ccc(Oc2ccccc2)cc1 | 277 µM |  | 
Cc1cccc(C)c1Oc1ccc(OCCOC2CCCCO2)cc1 (stereo not drawn) | > 60 µM |  | 
Cc1ccccc1Oc1ccc(OCCOC2CCCCO2)cc1 (stereo not drawn) | 143 µM |  | 
C[C@H](COc1ccc(Oc2ccccc2)cc1)SC#N | > 82 µM |  | 
Ic1cc(Oc2ccccc2)ccc1OCCOC1CCCCO1 (stereo not drawn) | 45 µM |  | 
N#CSCCSc1ccc(Oc2ccccc2)cc1 | 0.87 µM | 32 µM | 
N#CSCCOc1ccc(Cl)cc1 | 14.1 µM |  | 
N#CSCCOc1ccc(Cl)cc1Cl | 1 µM | 30 µM | > 100 µM
Brc1cccc(OCCOC2CCCCO2)c1 (stereo not drawn) | 104 µM |  | 

Now from value to molecule:

IC50 [1] | IC90 [2] | IC50 [3] | Compound
14.4 µM |  |  | CC(=O)N(CCSC#N)c1ccc(Oc2ccccc2)cc1
141 µM |  |  | N#CSCCNc1ccc(Oc2ccccc2)cc1
138 µM |  |  | Brc1cccc(Oc2ccc(OCCOC3CCCCO3)cc2)c1 (stereo not drawn)
24.5 µM |  |  | N#CSCCOc1ccc(Oc2ccccc2)cc1Cl
18.7 µM |  |  | N#CSCc1ccc(Oc2ccccc2)cc1
1.8 µM | 23 µM | > 100 µM | N#CSCCOc1ccc(Oc2ccccc2)cc1I
25 µM |  |  | C[C@@H](COc1ccc(Oc2ccccc2)cc1)SC#N
> 390 µM |  |  | Clc1ccc(OCCOC2CCCCO2)cc1 (stereo not drawn)
2.9 µM |  |  | N#CSCCOc1ccc(Oc2cccc(Br)c2)cc1
